Data as given in patent US9889234B2, “Scaffold for hard tissue regeneration containing active ingredient for treating osteoporosis and preparing method thereof” (KOREA INSTITUTE OF MACHINERY AND MATERIALS, priority 2014, dated 2018).

How the values were obtained:
[1] = Drug releasing characteristics of the active ingredient from the scaffold; assay type: physicochemical
Experimental: To evaluate the drug releasing characteristics of the active ingredient included in the scaffold, the scaffold for hard tissue regeneration (containing Quercetein by 200 μm/scaffold) prepared in Example 1 was dipped in body fluid like PBS (phosphate buffered saline) or de-ionized water in a 37° C. shaker. Sampling of the solution was performed hourly and the concentration of Quercetein released in the solution was measured. Quercetein is a hydrophobic material, so that it is very difficult to detect the concentration by dissolving. To evaluate the drug releasing activity in a solution where the active material is dissolved, the experiment was equally performed with ethanol, the dissolving solvent.
The following experiment was performed by the same manner as described in Example <1-1> except that the scaffold for hard tissue regeneration (containing Genistein by 200 μm/scaffold) prepared in Example 3 instead of the scaffold for hard tissue regeneration (containing Quercetein by 200 μm/scaffold) prepared in Example 1.

MC3T3-E1 cells = experiment: Osteoblast proliferation activity, MTS assay, drug in medium; assay type: cell-based
Experimental: MC3T3-E1 cells (MC3T3-E1 Subclone 4, ATCC CRL-2593, obtained from ATCC) were cultured in α-MEM (α-Minimum Essential Medium, GIBCO) supplemented with FBS (Fetal Bovine Serum) and penicillin/streptomycin under the standard culture condition (37° C., 5% CO2). When the cells were grown to 70˜80% confluency, the cells were trypsinized. Then, the cells were collected by centrifugation.
The collected MC3T3-E1 cells were seeded at the density of 1.0×10^4 cells, followed by standard culture for 2 hours. The medium containing Quercetein at the concentrations of 0, 1, 10, 50, 100, and 200 μm was added thereto.
To observe the metabolic activity of the seeded MC3T3-E1 cells, colorimetric 3-(4,5-dimethylthiazole-2-yl)-5-(3-carboxymethoxyphenol)-2-(4-sulfophenyl)-2H-tetrazolium (MTS) assay (CellTiter 96® AQeous One solution Cell Proliferation Assay, Promega) was performed according to the manufacturer's instruction. The MTS tetrazolium compound is converted biologically and dissolved in the tissue culture medium by the cells into a formazan product displaying highest absorbance at 490 nm.
The following experiment was performed by the same manner as described in Experimental Example <2-1> except that Genistein was used instead of Quercetein.

[2] = test system: RAW 264.7 cells, the multinuclear osteoclasts treated with RANKL; experiment: Osteoclast proliferation activity, drug in medium; assay type: cell-based; conditions: for inhibition of osteoclast proliferation, ranking among Quercetein, Genistein, Alendronate: same dose; for proliferation of osteoclasts: compared with the case not treated, 1 μM or 200 μM
[3] = Solubility of the active ingredient; assay type: physicochemical
[4] = determined from the proliferation of osteoblasts

Row | Genistein released ([1]; from scaffold of Example 3 (200 μm/scaffold), ethanol, early 5 days) [%] | Genistein released ([1]; from scaffold of Example 3, de-ionized water and PBS, over 55 days, without early acute release) [%] | solubility in an aqueous solution [3] | solubility in ethanol compared with that of Quercetein ([3]; ethanol, from comparison of release results) | Quercetein released ([1]; from scaffold of Example 1 (200 μm/scaffold), ethanol, 37° C. shaker, over 40 days, without early acute release) [%] | Quercetein released ([1]; from scaffold of Example 1, de-ionized water and PBS, 37° C., early 20 days) [%] | Quercetein released ([1]; from scaffold of Example 1, de-ionized water and PBS, 37° C., over 68 days) | Quercetein released ([1]; from scaffold, de-ionized water and PBS, over 60 days) [%] | Compound | proliferation of osteoblasts (MC3T3-E1 cells; 1 μM, day 3 and day 5) | promoting effect on osteoblast proliferation relative to Quercetein (MC3T3-E1 cells; 1 μM, day 3 and day 5) | proliferation of osteoblasts (MC3T3-E1 cells; concentration increased from 1 to 10 μM, vs non-treated group) | proliferation of osteoblasts (MC3T3-E1 cells; concentration over 10 μM) | most preferable concentration (osteoblast proliferation) (MC3T3-E1 cells; [4]) [µM] | preferable concentration (osteoblast proliferation) (MC3T3-E1 cells; [4]) | inhibition of osteoclast proliferation, ranking among Quercetein, Genistein, Alendronate ([2]; 1 μM) | proliferation of osteoclasts [2] | effect on the proliferation of osteoblasts (MC3T3-E1 cells; 200 μM, day 3 and day 5, comparison with Alendronate) | proliferation of osteoblasts (MC3T3-E1 cells; concentration increased from 1 to 200 μM, vs non-treated group, day 1, 3, 5) | inhibition of osteoclast proliferation, ranking among Quercetein, Genistein, Alendronate ([2]; 200 μM)
1 | 100 | 60 | low | even higher |  |  |  |  | O=c1c(-c2ccc(O)cc2)coc2cc(O)cc(O)c12 [Genistein] | promoted the proliferation of osteoblasts | greater than that of Quercetein | increased | rather inhibited | 1 | 1˜10 μM | most excellent in inhibiting the proliferation of osteoclasts | significantly inhibited |  |  | 
2 |  |  | low |  | 100 | 10 | approximately 50% | 50 | O=c1c(O)c(-c2ccc(O)c(O)c2)oc2cc(O)cc(O)c12 [Quercetein] | promoted the proliferation of osteoblasts |  |  |  |  | 1˜200 μM |  | significantly inhibited | increased the proliferation significantly | increased Quercetein dose-dependently | most excellent in inhibiting the proliferation of osteoclasts
